Measurements as given in paper PMC12818720, “Nanoengineered Self-Assembling Peptides with Increased Proteolytic Stability Promote Wound Healing” (ACS Applied Materials & Interfaces, 2025).
Ends that are not written are not given here.

What was measured:
[1] = system: HaCaT cells; assay: Cytotoxicity / metabolic activity, AlamarBlue direct contact assay; assay type: cell-based, human; settings: assembly performed in the presence of Cu2+ (1:1), 24 h, serum-free DMEM-HG
Method: As the designed systems target wound healing, we assessed their cytocompatibility toward human keratinocyte cell line HaCaT.
The cytotoxicity evaluation of the peptides and their supramolecular assemblies was evaluated by direct contact assay with HaCaT cells using the AlamarBlue HS Cell Viability Reagent assay (Biorad). Briefly, HaCaT cells were cultured in DMEM-HG supplemented with 10% FBS (2.5 × 10^4 cell/well) in 96-well plates for 24 h. Peptide solutions (10 mM) were prepared 24 h before the assay and sterilized (UV, 30 min). These solutions were diluted in serum-free DMEM-HG just prior to the assay to obtain concentrations ranging from 1 to 0.05 mM and added to the cultured HaCaT cells. Cultures with the peptides were mantained for 24 h and then the medium was aspirated, and AlamarBlue HS Cell Viability solution (10% (v/v) in DMEM-HG) was added to each well. The plates were incubated for 3 h at 37 °C with 5% CO2. The medium from each well was transferred to a black 96-well plate, and the fluorescence was measured using a microplate reader (Synergy, Bio-Tek) with an excitation wavelength of 550 nm and an emission wavelength of 590 nm. Cells cultured on tissue culture polystyrene (TCPS) were used as a positive control and cells treated with 20% DMSO were used as a negative one.

[2] = target: T1, proteinase K (Parengyodontium album, UniProt P06873); assay: Stability of peptide assemblies against proteinase K (HPLC); assay type: in vitro ADME; settings: in the presence of Cu2+, peptide 2 mM
T1 construct: purchased AppliChem
T1 sequence (P06873 106-384): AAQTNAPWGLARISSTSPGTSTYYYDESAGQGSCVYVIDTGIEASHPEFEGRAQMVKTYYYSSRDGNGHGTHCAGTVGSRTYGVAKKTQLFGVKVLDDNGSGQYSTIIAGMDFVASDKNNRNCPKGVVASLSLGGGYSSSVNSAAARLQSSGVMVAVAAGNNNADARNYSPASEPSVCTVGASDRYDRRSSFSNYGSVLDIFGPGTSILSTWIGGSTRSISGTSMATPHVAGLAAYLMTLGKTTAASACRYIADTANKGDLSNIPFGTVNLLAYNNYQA
Method: The chemical structure and molecular packing of the peptides play a crucial role in their stability by (un)-shielding the amide bonds from enzymatic degradation. − We investigated the stability of the supramolecular assemblies generated by Pep1–Pep3 in the presence of proteinase K. This enzyme was selected because of its activity toward a broad range of peptides/proteins that spans different temperatures (25–65 °C) and pH values (7–12).
A stock solution of proteinase K (50 μg/mL, AppliChem) was prepared in PBS. Peptide assemblies were prepared as described in Section 1 day prior the assay. These samples were incubated with proteinase K (final concentration: 10 μg/mL for proteinase K and 2 mM for Cu-free or Cu-complexed Pep1-Pep3). At each designated time point, an aliquot of 150 μL was collected, and the enzymatic activity was stopped by adding 300 μL of 1:1 H2O/ACN with 0.1% TFA. The aliquot was quantitatively assessed using HPLC under the conditions described in Section . Each sample was run in duplicate to ensure reliable results.

Sequence | concentration above which cytotoxicity was observed [1] | peptide not degraded after 6 h of incubation with proteinase K ([2]; proteinase K 10 μg/mL in PBS, 6 h, HPLC read-out, run in duplicate) | initial concentration still present after 24 h with proteinase K ([2]; proteinase K 10 μg/mL in PBS, 24 h, HPLC read-out, run in duplicate) [%] | relative stability to proteinase K (in words) ([2]; proteinase K 10 μg/mL, HPLC)
FFFFDGHK [Pep2] | above 250 μM |  |  | 
FFFFDKHG [Pep3] | above 250 μM | more than 90% | 60 | most stable
